Where two headings read alike, the source gives them in different places.
Experiments:
Assay type in all cases: cell-based
EGFR L858R/T790M/C797S = target: T1, EGFR L858R/T790M/C797S (Homo sapiens, UniProt P00533, C797S/L858R/T790M); experiment: EGFR degradation HTRF assay in BaF3-LTC cells; conditions: for Dmax: read-out: BaF3-LTC Dmax (%)
T1 construct: expressed in transfected cells; host or cells: BaF3-LTC
How it was run: (§1)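 BaF3 cells expressing EGFR L858R/C797S or L858R/T790M/C797S treated 16 h at 37 °C with compounds (top 10 uM, 5-fold, 8 doses; 0.2% DMSO). Remaining EGFR quantified by HTRF in lysates after overnight antibody incubation. Degradation percentage versus DMSO controls; DC50 from four-parameter fit, Dmax as maximal degradation.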

EGFR Del19/C797S = experiment: EGFR degradation HTRF assay in H1975-clone #23 (H1975 #23 DC); conditions: H1975-clone #23 (Del19/C797S); for DC50: 16 h treatment, HTRF; for H1975 #23 DC Dmax (%): maximum percentage of inhibition (degradation)
Protocol: (§2) Cell Line Generation H1975-clone #28(Del19/T790M/C797S) and H1975-clone #23(Del19/C797S). EGFR-Del19/T790M/C797S and EGFR-Del19/C797S were stably expressed in H1975 cell lines by lentivirus-mediated over-expression, respectively. The EGFR over-expressed cells then underwent gene knockout, in which the EGFR targeting sgRNA was designed to only target the endogenous EGFR copies and preserve the exogenous EGFR copies. Followed by the gene knockout, the edited H1975 cells were seeded in 96 well plates at the concentration of 1 cell/well, cultured for about 2 weeks to allow single clones formation. The formed clones were screened by DNA sequencing and whole exon sequencing analysis for the desired edition. H1975-clone #28 and H1975-clone #23 were finally confirmed as homozygous Del19/T790M/C797S EGFR and Del19/C797S EGFR clones, respectively.
(§3) After 16 h treatment, add HTRF lysis buffer to each well; seal the plate and incubate 1 hour at room temperature on a plate shaker; Once the cells are lysed, 16 μL of cell lysate are transferred to a PE 384-well HTRF detection plate; 4 μL of pre-mixed HTRF antibodies are added to each well; Cover the plate with a plate sealer, spin 1000 rpm for 1 min, Incubate overnight at room temperature; Read on BMG PheraStar with HTRF protocol (337 nm-665 nm-620 nm).
(§4) The inhibition (degradation) percentage of the compound was calculated by the following equation: Inhibition percentage of Compound=100−100×(Signal−low control)/(High control−low control), wherein signal=each test compound group
(§5) High control=Cell group with added DMSO and without compound, indicating microplate readings without EGFR degradation;
(§6) Dmax is the maximum percentage of inhibition (degradation).
(§7) The IC50 (DC50) value of a compound can be obtained by fitting the following equation
(§8) Y=Bottom+(TOP−Bottom)/(1+((IC50/X)^hillslope))
Wherein, X and Y are known values, and IC50, Hillslope, Top and Bottom are the parameters obtained by fitting with software. Y is the inhibition percentage (calculated from the equation), X is the concentration of the compound; IC50 is the concentration of the compound when the 50% inhibition is reached. The smaller the IC50 value is, the stronger the inhibitory ability of the compound is. Vice versa, the higher the IC50 value is, the weaker the inhibitory ability of the compound is; Hillslope represents the slope of the fitted curve, generally around 1*; Bottom represents the minimum value of the curve obtained by data fitting, which is generally 0%±20%; Top represents the maximum value of the curve obtained by data fitting, which is generally 100%±20%. The experimental data were fitted by calculating and analyzing with Dotmatics data analysis software.

EGFR L858R/C797S = target: T2, EGFR L858R/C797S (Homo sapiens, UniProt P00533, C797S/L858R); experiment: EGFR degradation HTRF assay in BaF3 LC cells; conditions: for DC50: 16 h treatment, HTRF
T2 construct: expressed in transfected cells; host or cells: BaF3 LC
How it was run: as §1

EGFR Del19/T790M/C797S = experiment: EGFR degradation HTRF assay in H1975-clone #28 (H1975 #28 DTC); conditions: H1975-clone #28 (Del19/T790M/C797S), maximum percentage of inhibition (degradation)
Protocol: as §2, §3, §4, §5, §6, §7, §8
Wherein, X and Y are known values, and IC50, Hillslope, Top and Bottom are the parameters obtained by fitting with software. […]

[1] = BaF3-LTC (L858R/T790M/C797S), maximum percentage of inhibition (degradation)
[2] = BaF3 LC (L858R/C797S), maximum percentage of inhibition (degradation), read-out: BaF3 LC Dmax (%)

T2 sequence (P00533 25-1210 C797S/L858R): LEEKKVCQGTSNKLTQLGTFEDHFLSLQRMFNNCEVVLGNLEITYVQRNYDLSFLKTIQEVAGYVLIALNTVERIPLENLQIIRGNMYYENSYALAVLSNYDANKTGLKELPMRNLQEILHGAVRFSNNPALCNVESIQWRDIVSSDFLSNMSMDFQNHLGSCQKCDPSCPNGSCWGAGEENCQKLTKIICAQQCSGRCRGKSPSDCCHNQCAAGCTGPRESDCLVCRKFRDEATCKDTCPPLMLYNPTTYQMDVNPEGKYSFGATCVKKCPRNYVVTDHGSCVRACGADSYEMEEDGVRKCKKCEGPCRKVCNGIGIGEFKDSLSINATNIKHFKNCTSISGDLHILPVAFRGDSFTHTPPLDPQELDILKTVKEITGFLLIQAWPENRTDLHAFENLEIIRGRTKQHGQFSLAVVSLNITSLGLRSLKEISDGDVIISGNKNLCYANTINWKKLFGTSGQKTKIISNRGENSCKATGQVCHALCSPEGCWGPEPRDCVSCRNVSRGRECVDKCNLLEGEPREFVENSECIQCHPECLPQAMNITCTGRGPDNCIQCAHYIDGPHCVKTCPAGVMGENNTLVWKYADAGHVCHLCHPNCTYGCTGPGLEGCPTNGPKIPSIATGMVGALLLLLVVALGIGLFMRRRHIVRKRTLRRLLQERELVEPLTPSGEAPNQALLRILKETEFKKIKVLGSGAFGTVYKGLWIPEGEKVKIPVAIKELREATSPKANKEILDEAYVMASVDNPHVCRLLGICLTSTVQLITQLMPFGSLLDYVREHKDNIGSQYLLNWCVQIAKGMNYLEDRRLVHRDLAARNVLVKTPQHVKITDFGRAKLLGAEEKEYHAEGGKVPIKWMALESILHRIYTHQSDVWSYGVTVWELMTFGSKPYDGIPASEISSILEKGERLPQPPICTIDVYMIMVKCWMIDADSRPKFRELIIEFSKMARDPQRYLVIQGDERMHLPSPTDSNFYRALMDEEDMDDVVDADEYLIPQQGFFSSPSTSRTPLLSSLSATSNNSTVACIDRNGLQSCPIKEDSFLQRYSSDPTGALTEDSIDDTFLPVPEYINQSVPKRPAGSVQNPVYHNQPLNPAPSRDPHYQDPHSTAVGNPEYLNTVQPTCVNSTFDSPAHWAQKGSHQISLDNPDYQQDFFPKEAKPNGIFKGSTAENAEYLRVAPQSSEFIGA
T1 sequence (P00533 25-1210 T790M/C797S/L858R): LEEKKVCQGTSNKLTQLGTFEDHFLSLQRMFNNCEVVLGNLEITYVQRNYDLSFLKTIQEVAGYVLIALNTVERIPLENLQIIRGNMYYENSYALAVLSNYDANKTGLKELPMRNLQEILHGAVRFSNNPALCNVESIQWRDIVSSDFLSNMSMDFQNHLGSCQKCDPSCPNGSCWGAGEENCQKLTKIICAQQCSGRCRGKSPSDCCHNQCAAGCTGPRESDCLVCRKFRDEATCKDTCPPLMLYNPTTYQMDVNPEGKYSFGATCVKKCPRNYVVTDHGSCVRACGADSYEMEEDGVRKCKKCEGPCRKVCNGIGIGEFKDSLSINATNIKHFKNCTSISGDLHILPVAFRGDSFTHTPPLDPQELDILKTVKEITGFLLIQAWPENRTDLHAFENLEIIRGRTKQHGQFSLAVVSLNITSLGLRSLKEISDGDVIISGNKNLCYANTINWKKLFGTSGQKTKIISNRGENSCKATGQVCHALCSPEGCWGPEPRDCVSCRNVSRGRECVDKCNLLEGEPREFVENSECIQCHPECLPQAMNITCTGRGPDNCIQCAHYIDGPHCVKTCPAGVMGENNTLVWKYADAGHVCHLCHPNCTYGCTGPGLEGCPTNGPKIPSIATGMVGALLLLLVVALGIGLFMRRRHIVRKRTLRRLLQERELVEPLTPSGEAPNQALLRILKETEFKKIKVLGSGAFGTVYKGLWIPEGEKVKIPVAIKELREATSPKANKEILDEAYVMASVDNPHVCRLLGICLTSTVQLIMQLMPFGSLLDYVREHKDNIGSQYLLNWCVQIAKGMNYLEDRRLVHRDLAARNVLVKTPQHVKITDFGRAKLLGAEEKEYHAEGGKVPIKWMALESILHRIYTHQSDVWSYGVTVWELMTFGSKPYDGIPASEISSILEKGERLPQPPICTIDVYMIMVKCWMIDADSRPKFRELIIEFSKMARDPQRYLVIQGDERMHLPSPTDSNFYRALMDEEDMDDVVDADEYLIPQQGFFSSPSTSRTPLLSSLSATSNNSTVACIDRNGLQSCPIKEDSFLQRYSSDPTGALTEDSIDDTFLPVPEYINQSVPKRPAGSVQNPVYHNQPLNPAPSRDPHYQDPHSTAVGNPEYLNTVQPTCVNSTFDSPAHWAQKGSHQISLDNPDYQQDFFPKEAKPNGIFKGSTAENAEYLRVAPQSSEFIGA

Dmax (EGFR L858R/T790M/C797S; [1])	Dmax (EGFR L858R/C797S; [2])	SMILES	H1975 # 28 DTC Dmax (%) (EGFR Del19/T790M/C797S)	Dmax (EGFR L858R/T790M/C797S)	also measured
–	–	CCc1ncc2c(P(C)(C)=O)c(Nc3nc(Nc4cc(CC)c(N5CCC(N6CCN(CCc7ccc8c(c7)oc(=O)n8C7CCC(=O)NC7=O)CC6)CC5)cc4OC)ncc3Br)ccc2n1 (stereo not shown) [Example 499, 3-(6-(2-(4-(1-(4-((5-bromo-4-((5-(dimethylphosphoryl)-2-ethylquinazolin-6-yl)amino)pyrimidin-2-yl)amino)-2-ethyl-5-methoxyphenyl)piperidin-4-yl)piperazin-1-yl)ethyl)-2-oxobenzo[d]oxazol-3(2H)-yl)piperidine-2,6-dione]	77.41%	87.8%	Dmax (EGFR L858R/C797S; BaF3, read-out: BaF3 LC Dmax (%)): 91%
95.6%	90%	COc1cc(N2CCC3(CCN(CCCCCOc4cccc5c4CN(C4CCC(=O)NC4=O)C5=O)CC3)CC2)c(C)cc1Nc1ncc(Br)c(Nc2ccc3nccnc3c2P(C)(C)=O)n1 (stereo not shown) [Example 542, 3-(4-((5-(9-(4-((5-bromo-4-((5-(dimethylphosphoryl)quinoxalin-6-yl)amino)pyrimidin-2-yl)amino)-5-methoxy-2-methylphenyl)-3,9-diazaspiro[5.5]undecan-3-yl)pentyl)oxy)-1-oxoisoindolin-2-yl)piperidine-2,6-dione]	–	–	DC50 (EGFR Del19/C797S): > 10000 nM; H1975 #23 DC Dmax (%) (EGFR Del19/C797S): 31.04%; DC50 (EGFR L858R/C797S; BaF3 LC (L858R/C797S)): 16.2 nM
–	–	CCOc1cc(N2CCC(N3CCN(CCc4cccc5c4oc(=O)n5C4CCC(=O)NC4=O)CC3)CC2)c(CC)cc1Nc1ncc(Br)c(Nc2ccc3nc(CC)ncc3c2P(C)(C)=O)n1 (stereo not shown) [Example 563, 3-(7-(2-(4-(1-(4-((5-bromo-4-((5-(dimethylphosphoryl)-2-ethylquinazolin-6-yl)amino)pyrimidin-2-yl)amino)-5-ethoxy-2-ethylphenyl)piperidin-4-yl)piperazin-1-yl)ethyl)-2-oxobenzo[d]oxazol-3(2H)-yl)piperidine-2,6-dione]	81.88%	92.6%	–
–	–	CCOc1cc(N2CCC(N3CCN(CC4CN(c5cccc6c5oc(=O)n6C5CCC(=O)NC5=O)C4)CC3)CC2)c(CC)cc1Nc1ncc(Br)c(Nc2ccc3nc(CC)ncc3c2P(C)(C)=O)n1 (stereo not shown) [Example 566, 3-(7-(3-((4-(1-(4-((5-bromo-4-((5-(dimethylphosphoryl)-2-ethylquinazolin-6-yl)amino)pyrimidin-2-yl)amino)-5-ethoxy-2-ethylphenyl)piperidin-4-yl)piperazin-1-yl)methyl)azetidin-1-yl)-2-oxobenzol[d]oxazol-3(2H)-yl)piperidine-2,6-dione]	84.02%	93.9%	–
98.6%	91.7%	CCc1ccc2c(P(C)(C)=O)c(Nc3nc(Nc4cc(CC)c(N5CCC(N6CCN(C(=O)C7CN(c8cc(F)c([C@H]9CCC(=O)NC9=O)c(F)c8)C7)CC6)CC5)cc4OC)ncc3Br)ccc2n1 [Example 755, (R)-3-(4-(3-(4-(1-(4-((5-bromo-4-((5-(dimethylphosphoryl)-2-ethylquinolin-6-yl)amino)pyrimidin-2-yl)amino)-2-ethyl-5-methoxyphenyl)piperidin-4-yl)piperazine-1-carbonyl)azetidin-1-yl)-2,6-difluorophenyl)piperidine-2,6-dione]	–	–	–
97%	94.5%	CCc1cc(Nc2ncc(Br)c(Nc3ccc4c(=O)n(C)ncc4c3P(C)(C)=O)n2)c(OC)cc1N1CCC(N2CCN(CCc3cccc4c3C3(CC3)C(=O)N4C3CCC(=O)NC3=O)CC2)CC1 (stereo not shown) [Example 756, 3-(4′-(2-(4-(1-(4-((5-bromo-4-((5-(dimethylphosphoryl)-2-methyl-1-oxo-1,2-dihydrophthalazin-6-yl)amino)pyrimidin-2-yl)amino)-2-ethyl-5-methoxyphenyl)piperidin-4-yl)piperazin-1-yl)ethyl)-2′-oxospiro[cyclopropane-1,3′-indolin]-1′-yl)piperidine-2,6-dione]	–	–	–

SMILES	Dmax (EGFR L858R/T790M/C797S; [1])	Dmax (EGFR L858R/C797S; [2])	H1975 # 28 DTC Dmax (%) (EGFR Del19/T790M/C797S)	Dmax (EGFR L858R/T790M/C797S)	also measured
CCc1cc(Nc2ncc(Br)c(Nc3ccc4nc(C)ccc4c3P(C)(C)=O)n2)c(OC2CC2)cc1N1CCC(N2CCN(CCc3cc(F)c([C@H]4CCC(=O)NC4=O)c(F)c3)CC2)CC1 [Example 459, (R)-3-(4-(2-(4-(1-(4-((5-bromo-4-((5-(dimethylphosphoryl)-2-methylquinolin-6-yl)amino)pyrimidin-2-yl)amino)-5-cyclopropoxy-2-ethylphenyl)piperidin-4-yl)piperazin-1-yl)ethyl)-2,6-difluorophenyl)piperidine-2,6-dione]	86.9%	76.6%	–	–	DC50 (EGFR L858R/T790M/C797S; BaF3-LTC (L858R/T790M/C797S), 16 h treatment, HTRF): 7.54 nM; DC50 (EGFR Del19/C797S): 6.01 nM; H1975 #23 DC Dmax (%) (EGFR Del19/C797S): 91.45%; DC50 (EGFR L858R/C797S; BaF3 LC (L858R/C797S)): 20.7 nM
